# Results from patent US20080140138A1, “Inhibition of inflammatory cytokine production by stimulation of brain muscarinic receptors” (priority 2002, published 2008).
# Legend:
# LPS-induced serum TNF = LPS-induced serum TNF after i.c.v. drug injection, L929 bioactivity assay; assay type: in vivo, Lewis rats; conditions: 5 μg/rat i.c.v., 1 h before LPS 15 mg/kg i.v.; blood 2 h post LPS
# Description: Method of stereotactic intracerebroventricular injections. […] Lewis rats were anaesthetized with urethane (1 g/kg, i.p.) and xylazine (15 mg/rat, i.m. (intramuscular)). Rats were then placed in a stereotactic head frame (Stoelting, Wood Dale, Ill., USA). The incisor bar was adjusted until the plane defined by the lambda and bregma was parallel to the base plate. For i.c.v. injections the needle of a Hamilton syringe (25 μl) was positioned stereotactically above the lateral ventricle (0.2 mm and 1.5 mm posterior to bregma, 3.2 mm below the dura.) Solutions of the drugs tested were prepared in sterile endotoxin-free water, at the specified concentrations, and a 10-μl injection/rat was administered over 2 min, 1 h prior to either carrageenan injection, or to LPS.
# In one set of experiments, rats were injected by i.c.v. means with either saline (n=1), CNI-1493 (5 μg/rat, n=3), CNI-1493 plus atropine (5 μg/rat each), or atropine (5 μg/rat). LPS (15 mg/kg, i.v.) was given 1 h later. Blood was collected 2 h post LPS administration. Serum TNF was determined by the L929 assay.
# [1] = test system: carrageenan-induced hindpaw edema; experiment: Carrageenan-induced hindpaw edema; assay type: in vivo, Lewis rats; conditions: CNI-1493 5 μg/rat i.c.v., 1 h before carrageenan; edema 3 h post carrageenan
# Description: (§1) Method of determining CNI-1493 receptor binding. CNI-1493 was tested at a single concentration (10 μM) in a panel of receptor binding assays by NovaScreen Biosciences Corporation (Hanover, Md.). Values were expressed as the percent inhibition of specific binding, and represented the average of duplicate tubes. Method of stereotactic intracerebroventricular injections. A rat model of intracerebroventricular (i.c.v.) injections was established in order to be able to directly deliver pharmacological agents into the brain of rats. This was necessary in order to separate drug effects on peripheral inflammation that occurred through central versus peripheral mechanisms. Lewis rats were anaesthetized with urethane (1 g/kg, i.p.) and xylazine (15 mg/rat, i.m. (intramuscular)). Rats were then placed in a stereotactic head frame (Stoelting, Wood Dale, Ill., USA). The incisor bar was adjusted until the plane defined by the lambda and bregma was parallel to the base plate. For i.c.v. injections the needle of a Hamilton syringe (25 μl) was positioned stereotactically above the lateral ventricle (0.2 mm and 1.5 mm posterior to bregma, 3.2 mm below the dura.) Solutions of the drugs tested were prepared in sterile endotoxin-free water, at the specified concentrations, and a 10-μl injection/rat was administered over 2 min, 1 h prior to either carrageenan injection, or to LPS.
# The tested drugs, in either the carrageenan and/or LPS experiments, were: saline control; fluoxetine hydrochloride, (also known as Prozak) (0.01 mg/100 g); muscarine (50 μg/rat, 5 μg/rat, 0.5 μg/rat, 0.05 μg/rat, 0.005 μg/rat); 4-(N-[3-chlorophenyl]carbamoyloxy)-2-butynyltrimethylammonium chloride (also known as McN-A-343) (5 μg/rat); Muscarinic Toxin-3, (also known as MT-3) from Dendroaspis angusticeps snake venom (0.37 μg/rat); nicotine (10 μg/rat); CNI-1493 (1 μg/kg, 50 μg/rat); atropine (1 μg/kg, 5 μg/rat); CNI-1493 plus atropine (1 μg/kg of each of the drugs; 50 μg/rat, 5 μg/rat respectively); naloxone hydrochloride (2 μg/rat), CNI-1493 plus naloxone (50 μg/rat+5 μg/rat respectively); and morphine (20 μg/rat).
# Method of carrageenan-induced hindpaw edema. Paw edema was induced in anaesthetized rats by injection of 1% solution of 1-carrageenan (100 μl) into the plantar surface of the left hindpaw. The right hindpaw was injected with the same volume of saline alone (as control). The thickness of the carrageenan-treated and saline-treated hindpaw was measured using a caliper at 3 h post carrageenan, and the difference between paw thickness calculated as an index of inflammation (paw swelling). Method of LPS injections and TNF determination. LPS (15 mg/kg, i.v.) was injected in the tail vein 1 h after drug injection. Blood was obtained 2 h post LPS injection by paraorbital bleeding. Serum TNF concentrations were determined by an L929 bioactivity assay. Method of assessing TNF by the L929 bioactivity assay. L929 cells were suspended in Dulbecco's minimal Eagle's medium (DMEM; GibcoBRL) supplemented with fetal bovine serum (10%; Hyclone) and penicillin/streptomycin (0.5%; Sigma Chemical Co.), and plated at 2×10^4 cells per well in 96-well flat-bottomed microtiter plates. After 24 h, media were respirated and replaced with medium containing cycloheximide (10 μg/ml; Sigma Chemical Co.) and the samples to be assayed/TNF standards. Plates were incubated overnight, at which time cell viability as a function of TNF concentration was assessed by the MTT assay. Absorbance values were converted to units per milliliter by comparison with a standard curve for rat TNF.
# In a third set of experiments, rats were injected by i.c.v. means with either saline (n=4), CNI-1493 (5 μg/rat, n=3), CNI-1493 plus atropine (5 μg/rat each), or atropine (5 μg/rat). Carrageenan was given to the animals 1 h later, and paw edema was determined 3 h post carrageenan. […]
# H1 histamine = H1 histamine (Homo sapiens, UniProt P35367); experiment: NovaScreen receptor binding panel; conditions: 10 μM; <50% = marginal or no activity
# Description: as §1
# Type N calcium channel = Type N calcium channel (Homo sapiens, UniProt Q00975); experiment: NovaScreen receptor binding panel; conditions: 10 μM, average of duplicate tubes
# Description: as §1
# thromboxane A2 = thromboxane A2 (Homo sapiens, UniProt P21731); experiment: NovaScreen receptor binding panel; conditions: 10 μM; <50% = marginal or no activity
# Description: as §1
# leukotriene D4 and LTD4 = experiment: NovaScreen receptor binding panel; conditions: 10 μM; <50% = marginal or no activity
# Description: as §1
# site 1 sodium = experiment: NovaScreen receptor binding panel; conditions: 10 μM; <50% = marginal or no activity
# Description: as §1
# dopamine = experiment: NovaScreen receptor binding panel; conditions: 10 μM; <50% = marginal or no activity
# Description: as §1
# vasopressin 1 = vasopressin 1 (Homo sapiens, UniProt P37288); experiment: NovaScreen receptor binding panel; conditions: 10 μM; <50% = marginal or no activity
# Description: as §1
# [2] = test system: glutamate (NMDA agonist site); experiment: NovaScreen receptor binding panel; conditions: 10 μM; <50% = marginal or no activity
# Description: as §1
# chloride channel = experiment: NovaScreen receptor binding panel; conditions: 10 μM; <50% = marginal or no activity
# Description: as §1
# site 2 sodium = experiment: NovaScreen receptor binding panel; conditions: 10 μM; <50% = marginal or no activity
# Description: as §1
# NK1 neurokinin = NK1 neurokinin (Homo sapiens, UniProt P25103); experiment: NovaScreen receptor binding panel; conditions: 10 μM; <50% = marginal or no activity
# Description: as §1
# Type L calcium channel = experiment: NovaScreen receptor binding panel; conditions: 10 μM; <50% = marginal or no activity
# Description: as §1
# [3] = test system: voltage-insensitive potassium channel; experiment: NovaScreen receptor binding panel; conditions: 10 μM, average of duplicate tubes
# Description: as §1
# epidermal growth factor = epidermal growth factor (Homo sapiens, UniProt P00533); experiment: NovaScreen receptor binding panel; conditions: 10 μM; <50% = marginal or no activity
# Description: as §1
# beta adrenergic = experiment: NovaScreen receptor binding panel; conditions: 10 μM; <50% = marginal or no activity
# Description: as §1
# [4] = test system: vasoactive intestinal peptide; experiment: NovaScreen receptor binding panel; conditions: 10 μM, average of duplicate tubes
# Description: as §1
# serotonin = experiment: NovaScreen receptor binding panel; conditions: 10 μM, average of duplicate tubes
# Description: as §1
# [5] = test system: voltage-sensitive potassium channel; experiment: NovaScreen receptor binding panel; conditions: 10 μM, average of duplicate tubes
# Description: as §1
# muscarinic = experiment: NovaScreen receptor binding panel; conditions: 10 μM, average of duplicate tubes
# Description: as §1
# Chain of NK1 neurokinin (P25103 whole entry): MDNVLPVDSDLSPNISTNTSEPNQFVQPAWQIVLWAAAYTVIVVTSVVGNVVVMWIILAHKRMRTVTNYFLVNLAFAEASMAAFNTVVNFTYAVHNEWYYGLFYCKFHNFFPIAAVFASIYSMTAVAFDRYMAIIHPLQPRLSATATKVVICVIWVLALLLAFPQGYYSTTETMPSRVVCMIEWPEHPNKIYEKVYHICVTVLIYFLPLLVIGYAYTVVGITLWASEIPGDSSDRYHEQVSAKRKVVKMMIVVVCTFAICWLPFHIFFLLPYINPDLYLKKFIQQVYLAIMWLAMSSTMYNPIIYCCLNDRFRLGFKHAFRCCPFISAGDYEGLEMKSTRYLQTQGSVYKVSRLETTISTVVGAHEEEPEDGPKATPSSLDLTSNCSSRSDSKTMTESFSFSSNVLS
# Chain of Type N calcium channel (P54289 25-946): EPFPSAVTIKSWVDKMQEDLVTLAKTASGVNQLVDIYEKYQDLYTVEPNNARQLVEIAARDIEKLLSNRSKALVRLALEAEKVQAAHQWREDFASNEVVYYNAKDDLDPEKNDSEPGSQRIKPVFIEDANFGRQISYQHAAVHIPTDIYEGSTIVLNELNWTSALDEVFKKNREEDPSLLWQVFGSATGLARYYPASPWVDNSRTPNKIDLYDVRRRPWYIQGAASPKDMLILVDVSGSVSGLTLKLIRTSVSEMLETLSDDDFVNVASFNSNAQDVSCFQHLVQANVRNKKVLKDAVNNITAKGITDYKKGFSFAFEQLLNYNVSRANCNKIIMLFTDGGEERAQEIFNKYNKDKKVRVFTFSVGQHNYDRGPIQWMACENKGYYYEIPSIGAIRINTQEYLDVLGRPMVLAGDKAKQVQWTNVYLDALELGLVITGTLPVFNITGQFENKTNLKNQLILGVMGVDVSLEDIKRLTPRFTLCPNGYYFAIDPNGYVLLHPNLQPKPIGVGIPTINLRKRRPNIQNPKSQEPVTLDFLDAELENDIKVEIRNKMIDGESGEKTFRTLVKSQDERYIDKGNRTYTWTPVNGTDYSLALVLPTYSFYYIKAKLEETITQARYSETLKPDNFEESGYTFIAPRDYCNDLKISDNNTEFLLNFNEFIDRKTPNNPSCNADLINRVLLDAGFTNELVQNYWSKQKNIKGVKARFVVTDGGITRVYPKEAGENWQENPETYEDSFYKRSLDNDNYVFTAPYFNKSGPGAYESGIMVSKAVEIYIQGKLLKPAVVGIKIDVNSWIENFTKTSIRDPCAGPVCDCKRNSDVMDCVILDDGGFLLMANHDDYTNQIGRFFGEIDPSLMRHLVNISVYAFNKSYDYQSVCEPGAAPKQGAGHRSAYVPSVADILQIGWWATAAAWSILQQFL
# Chain of Type N calcium channel (Q00975 whole entry): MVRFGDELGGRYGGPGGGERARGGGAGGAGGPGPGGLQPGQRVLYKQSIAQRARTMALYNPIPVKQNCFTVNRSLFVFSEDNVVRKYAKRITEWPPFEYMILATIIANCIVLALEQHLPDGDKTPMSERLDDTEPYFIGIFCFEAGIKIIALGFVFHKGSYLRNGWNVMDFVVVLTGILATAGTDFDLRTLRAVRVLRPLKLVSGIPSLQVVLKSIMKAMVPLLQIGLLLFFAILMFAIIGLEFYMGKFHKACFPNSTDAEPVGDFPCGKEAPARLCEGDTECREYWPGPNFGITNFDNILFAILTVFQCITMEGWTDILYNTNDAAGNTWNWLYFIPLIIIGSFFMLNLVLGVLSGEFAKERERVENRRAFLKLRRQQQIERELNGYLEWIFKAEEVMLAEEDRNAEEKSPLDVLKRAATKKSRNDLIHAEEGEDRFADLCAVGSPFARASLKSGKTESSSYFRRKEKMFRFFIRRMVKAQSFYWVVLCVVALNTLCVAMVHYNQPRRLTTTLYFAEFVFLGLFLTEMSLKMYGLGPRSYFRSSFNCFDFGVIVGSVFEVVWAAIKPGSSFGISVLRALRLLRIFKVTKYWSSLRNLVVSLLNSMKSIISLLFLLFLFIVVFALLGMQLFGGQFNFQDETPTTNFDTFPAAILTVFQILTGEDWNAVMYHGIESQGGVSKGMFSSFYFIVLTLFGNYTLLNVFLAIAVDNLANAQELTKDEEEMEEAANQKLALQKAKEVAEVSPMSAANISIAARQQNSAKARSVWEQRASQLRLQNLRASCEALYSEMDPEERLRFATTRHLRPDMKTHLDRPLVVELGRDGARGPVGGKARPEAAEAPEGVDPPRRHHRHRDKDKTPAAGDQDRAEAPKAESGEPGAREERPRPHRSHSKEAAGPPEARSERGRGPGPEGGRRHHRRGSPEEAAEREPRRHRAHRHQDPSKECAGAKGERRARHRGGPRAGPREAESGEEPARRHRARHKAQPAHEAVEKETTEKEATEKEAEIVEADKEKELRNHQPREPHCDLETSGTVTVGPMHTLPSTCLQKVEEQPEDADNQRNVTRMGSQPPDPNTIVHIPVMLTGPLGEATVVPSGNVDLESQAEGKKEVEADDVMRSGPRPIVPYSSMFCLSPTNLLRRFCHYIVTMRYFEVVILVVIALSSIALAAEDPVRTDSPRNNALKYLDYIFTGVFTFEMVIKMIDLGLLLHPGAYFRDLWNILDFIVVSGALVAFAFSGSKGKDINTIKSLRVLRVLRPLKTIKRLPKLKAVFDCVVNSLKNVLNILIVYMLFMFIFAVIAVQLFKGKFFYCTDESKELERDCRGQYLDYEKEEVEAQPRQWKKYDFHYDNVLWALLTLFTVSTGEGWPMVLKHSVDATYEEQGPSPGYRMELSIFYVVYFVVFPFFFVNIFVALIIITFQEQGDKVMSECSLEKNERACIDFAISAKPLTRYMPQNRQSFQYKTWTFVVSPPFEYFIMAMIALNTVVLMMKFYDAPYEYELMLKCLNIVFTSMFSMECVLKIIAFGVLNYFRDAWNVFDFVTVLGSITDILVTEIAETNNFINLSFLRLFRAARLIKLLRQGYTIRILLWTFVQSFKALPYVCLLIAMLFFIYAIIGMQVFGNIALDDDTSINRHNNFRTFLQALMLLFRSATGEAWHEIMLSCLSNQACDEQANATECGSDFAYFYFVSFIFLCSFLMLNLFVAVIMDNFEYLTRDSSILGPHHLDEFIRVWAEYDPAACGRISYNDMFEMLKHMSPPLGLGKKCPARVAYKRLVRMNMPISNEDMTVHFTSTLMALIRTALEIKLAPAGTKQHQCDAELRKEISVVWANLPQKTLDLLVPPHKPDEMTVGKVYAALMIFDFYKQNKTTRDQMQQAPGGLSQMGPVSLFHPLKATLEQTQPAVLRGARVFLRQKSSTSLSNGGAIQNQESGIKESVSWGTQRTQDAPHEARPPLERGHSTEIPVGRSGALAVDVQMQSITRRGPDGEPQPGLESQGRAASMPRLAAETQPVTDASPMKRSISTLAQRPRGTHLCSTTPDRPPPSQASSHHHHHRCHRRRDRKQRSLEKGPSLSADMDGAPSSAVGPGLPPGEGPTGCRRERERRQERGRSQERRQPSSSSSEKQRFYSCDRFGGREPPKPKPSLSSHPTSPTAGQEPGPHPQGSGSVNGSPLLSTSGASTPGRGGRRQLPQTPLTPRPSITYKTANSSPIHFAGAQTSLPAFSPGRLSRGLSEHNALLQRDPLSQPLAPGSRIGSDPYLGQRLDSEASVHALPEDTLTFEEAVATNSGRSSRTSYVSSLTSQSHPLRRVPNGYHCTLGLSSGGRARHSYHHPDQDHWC
# Chain of Type N calcium channel (P54289 947-1103): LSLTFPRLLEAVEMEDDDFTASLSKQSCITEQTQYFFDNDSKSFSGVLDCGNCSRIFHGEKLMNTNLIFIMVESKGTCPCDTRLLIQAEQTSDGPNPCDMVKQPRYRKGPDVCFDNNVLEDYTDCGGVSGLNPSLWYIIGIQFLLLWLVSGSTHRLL
# Chain of Type N calcium channel (P54284 whole entry, further chain): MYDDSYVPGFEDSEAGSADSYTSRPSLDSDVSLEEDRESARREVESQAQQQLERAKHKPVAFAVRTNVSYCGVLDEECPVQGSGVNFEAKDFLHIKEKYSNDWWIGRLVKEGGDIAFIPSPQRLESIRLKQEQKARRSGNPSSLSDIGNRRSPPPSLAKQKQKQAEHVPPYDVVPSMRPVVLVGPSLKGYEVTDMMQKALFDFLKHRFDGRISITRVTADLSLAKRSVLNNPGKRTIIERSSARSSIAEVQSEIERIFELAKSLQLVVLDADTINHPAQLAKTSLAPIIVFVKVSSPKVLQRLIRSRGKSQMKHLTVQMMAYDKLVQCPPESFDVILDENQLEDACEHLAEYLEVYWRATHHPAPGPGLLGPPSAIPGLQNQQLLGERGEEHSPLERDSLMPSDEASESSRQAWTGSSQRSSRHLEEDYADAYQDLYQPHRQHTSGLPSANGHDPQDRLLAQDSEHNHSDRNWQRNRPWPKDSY
# Chain of H1 histamine (P35367 whole entry): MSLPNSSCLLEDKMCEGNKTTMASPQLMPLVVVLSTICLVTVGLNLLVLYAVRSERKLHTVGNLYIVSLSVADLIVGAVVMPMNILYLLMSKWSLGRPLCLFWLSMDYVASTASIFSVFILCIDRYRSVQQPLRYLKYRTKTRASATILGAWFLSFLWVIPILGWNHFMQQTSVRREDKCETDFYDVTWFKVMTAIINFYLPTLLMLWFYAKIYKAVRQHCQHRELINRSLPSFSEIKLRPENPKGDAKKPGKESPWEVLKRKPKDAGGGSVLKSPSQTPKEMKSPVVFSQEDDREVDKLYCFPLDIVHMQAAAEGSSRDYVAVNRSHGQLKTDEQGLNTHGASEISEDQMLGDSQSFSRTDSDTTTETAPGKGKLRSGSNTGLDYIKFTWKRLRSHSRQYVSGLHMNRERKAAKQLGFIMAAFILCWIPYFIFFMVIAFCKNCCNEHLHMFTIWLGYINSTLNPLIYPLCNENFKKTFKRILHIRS
structure (smiles),measurement,setting,value
"CC(=NNC(=N)N)c1cc(NC(=O)CCCCCCCCC(=O)Nc2cc(C(C)=NNC(=N)N)cc(C(C)=NNC(=N)N)c2)cc(C(C)=NNC(=N)N)c1.Cl.Cl.Cl.Cl [CNI-1493, N,N′-bis(3,5-diacetylphenyl) decanediamide tetrakis (amidinohydrazone) tetrahydrochloride]",inhibition of LPS-induced serum TNF levels,LPS-induced serum TNF,more than 80%
same,inhibition of carrageenan-induced paw edema,[1],significantly inhibits
same,percent inhibition of receptor binding,H1 histamine,less than 50%
same,percent inhibition of specific binding,Type N calcium channel,84.2%
same,percent inhibition of receptor binding,thromboxane A2,less than 50%
same,percent inhibition of receptor binding,leukotriene D4 and LTD4,less than 50%
same,percent inhibition of receptor binding,site 1 sodium,less than 50%
same,percent inhibition of receptor binding,dopamine,less than 50%
same,percent inhibition of receptor binding,vasopressin 1,less than 50%
same,percent inhibition of receptor binding,[2],less than 50%
same,percent inhibition of receptor binding,chloride channel,less than 50%
same,percent inhibition of receptor binding,site 2 sodium,less than 50%
same,percent inhibition of receptor binding,NK1 neurokinin,less than 50%
same,percent inhibition of receptor binding,Type L calcium channel,less than 50%
same,percent inhibition of specific binding,[3],60.2%
same,percent inhibition of receptor binding,epidermal growth factor,less than 50%
same,percent inhibition of receptor binding,beta adrenergic,less than 50%
same,percent inhibition of specific binding,[4],58.5%
same,percent inhibition of specific binding,serotonin,75.6%
same,percent inhibition of specific binding,[5],73.0%
same,percent inhibition of specific binding,muscarinic,60.6%
